The values that follow come from US4302535A, “Assay for mutagenesis in heterozygous diploid human lymphoblasts” (Massachusetts Institute of Technology, priority 1979, dated 1981).

One data set relates to TK6 cell line. Nature of the data set: Mutation assay employing TK6 cell line: induction of TFTdR-resistant mutants (Example 2, Table 1). It counts as cell-based, human. Here is the method:
One cell line, TK6, isolated in Example 1, was maintained in spinner culture at 37° C. with a doubling time of approximately 18 hours. Approximately 10^7 cells (4×10^5 /ml) were treated with either BMS (1 mM) of ICR-191 (0.25 μg/ml and 0.50 μg/ml) for 24 hours. After treatment, the cells were centrifuged and resuspended in fresh medium at a concentration of 3×10^5 /ml. Dilutions to 3×10^5 /ml were made daily.
At various times after treatment, duplicate aliquots of 4×10^6 cells were centrifuged and resuspended in 10 ml of RPMI containing 20% FCS, 100 μ/ml penicillin, and 0.25% agarose (plating agar). To determine the plating efficiency of the culture, a […] sample of the suspension containing 4000 cells was added to 5 ml of plating agar and layered over 5 ml prejelled layer of the same medium in a 100 mm petri dish. […] The suspension was then plated in two 5 ml aliquots, each layered over a prejelled layer of plating agar in a 100 mm petri dish (final TFTdR concentration=1 μg/ml). The plates were fed the following day with 3 ml of medium.
The plates were counted after 7-10 days in a 37° C., 5% CO2, humidified incubator.

The subject of data set [1] is TK6 cells. Nature of the data set: Mutagenicity of polyaromatic hydrocarbons, trifluorothymidine resistance (Example 8, Table 4). To be noted: conclusion from plots and tables. Here is the method:
Three polyaromatic hydrocarbons derived from kerosine soot were examined for mutagenicity.
Error bars are the standard deviation of the mean.
For perylene, TK6 cells were treated in duplicate with perylene for 3 hours in the presence of 5% (v/v) aroclor-induced rat liver post-mitochondrial supernatant.

The test system of data set [2] is trifluorothymidine-resistant TK6 mutant clones and TK6. Nature of the data set: Growth of trifluorothymidine-resistant mutants in various media (Example 4, Table 2). It is filed as cell-based, human. Details: key to T2 - F3 TdR (doubling time): NG means no growth was observed in 3 days. To be noted: F3 TdR 1.0 μg/ml. The protocol:
Growth experiments were performed approximately three weeks later, in 25 cm^2 […] total volume. […] RPMI is normal medium with 15% fetal calf serum. […] CHAT contained 1×10^-5 M cytidine, 2×10^-4 M hypoxanthine, 2×10^-7 M aminopterin, and 1.75×10^-5 M thymidine.

For data set [3], the system named is TK6 cells. Nature of the data set: Optimization of selective agent concentration (Example 6, FIG. 4). It counts as cell-based, human. To be noted: 0.33 μg/ml through 10 μg/ml; microtiter plates, two weeks. From the text:
FIG. 4 is a plot of the data obtained wherein each point is the average of two independent platings.

Data set [4] has as its system trifluorothymidine-resistant TK6 mutant clones. The data set is described as follows: Plating efficiency of induced mutants in trifluorothymidine (Example 6, Table 3). It counts as cell-based, human. From the text:
The effect of dead TK6 cells on the expression of mutants growing in microtiter plates was also studied.

In data set [5] the test system is TK6 cells and trifluorothymidine-resistant mutants. The data set is described as follows: Reconstruction experiment: toxicity of BMS to TK6 and mutants (Example 7, FIG. 5). It is filed as cell-based, human. To be noted: 24 hours exposure; relative surviving fraction. The protocol: TK6 cells were exposed to BMS for 24 hours. After treatment, the relative surviving fraction was determined by plating in micro wells.

Data set [6] relates to TK6 cells. Conditions: induced by BMS (3 mM, 2 hours), 5 μg/ml 6-thioguanine.
The mark [7] stands for this setting: 0.25 μg/ml × 24 Hrs, day 0 post-treatment.
[8] abbreviates: 0.25 μg/ml × 24 Hrs, day 2 post-treatment.
The mark [9] stands for this setting: 0.25 μg/ml × 24 Hrs, day 4 post-treatment.
Where [10] appears, read: 0.5 μg/ml × 24 Hrs, day 0 post-treatment.
[11] abbreviates: 0.5 μg/ml × 24 Hrs, day 2 post-treatment.
The mark [12] stands for this setting: 0.5 μg/ml × 24 Hrs, day 4 post-treatment.
Setting [13] is: 1 mM × 24 Hrs, day 1 post-treatment.
Setting [14] is: 1 mM × 24 Hrs, day 3 post-treatment.
Setting [15] is: 1 mM × 24 Hrs, day 5 post-treatment.

On to `COc1ccc2nc3cc(Cl)ccc3c(NCCCNCCCl)c2c1` [ICR-191], for which the “Observed Mutants per 4 × 10^6 Cells” value is given as 26 with TK6 cell line (setting [7]); 139 in the data set on TK6 cell line (setting [8]); 126 with TK6 cell line (setting [9]); 55 in the data set with TK6 cell line (setting [10]); 229 in the data set on TK6 cell line (setting [11]); 182 in the data set with TK6 cell line (setting [12]). In addition, the “Plating Efficiency” value in the data set with TK6 cell line (setting [7]) is recorded as 0.25; with TK6 cell line (setting [8]) it was 0.26; with TK6 cell line (setting [9]) it was 0.27; with TK6 cell line (setting [10]) it was 0.24; with TK6 cell line (setting [11]), 0.25; in the data set on TK6 cell line (setting [12]) it was 0.20.
In the case of `c1cc2cccc3c4cccc5cccc(c(c1)c23)c54` [perylene], the “mutagenic activity for these human cells” value with TK6 cells [1] is “inactive”.
With `O=c1[nH]c(=O)n([C@H]2C[C@H](O)[C@@H](CO)O2)cc1C(F)(F)F` [trifluorothymidine], the “T2 - F3 TdR (doubling time)” value is reported as “NG” in data set [2] (TK6); 18.4 in data set [2] (mutant BMS-2); 19.2 in data set [2] (mutant BMS-3); 17.7 in data set [2] (mutant BMS-4); 19.7 in data set [2] (mutant BMS-5); 18.6 in data set [2] (mutant ICR-1). Also, the “T2 - F3 TdR (doubling time)” value in data set [2] (mutant ICR-2) is listed as 21.2. Moreover, the “growth of mutants in F3 TdR” value in data set [2] (all mutants) is reported as “all mutants grew well”. Moreover, the “observed mutant fraction of an untreated culture versus trifluorothymidine concentration” value with TK6 cells [3] is recorded as “no difference in the observed mutant fraction”. The “PE in RPMI - F3 TdR” value in data set [4] (mutant BMS-2) is 0.09; in data set [4] (mutant BMS-3) it was 0.21; in data set [4] (mutant BMS-4), 0.11; in data set [4] (mutant BMS-5), 0.29; in data set [4] (mutant ICR-1), 0.21; in data set [4] (mutant ICR-2) it was 0.09. The “PE in RPMI-F3 TdR with 40,000 TK6/well” value is listed as 0.09 in data set [4] (mutant BMS-2); 0.17 in data set [4] (mutant BMS-3); 0.15 in data set [4] (mutant BMS-4); 0.31 in data set [4] (mutant BMS-5); 0.21 in data set [4] (mutant ICR-1); 0.10 in data set [4] (mutant ICR-2).
For the compound `CCCCOS(C)(=O)=O` [BMS, butylmethane sulfonate], the “toxicity to TK6 and a mixture of mutants or a single mutant clone” value in data set [5] is on record as “equally toxic”. Besides, the “Observed Mutants per 4 × 10^6 Cells” value in the data set on TK6 cell line (setting [13]) amounted to 132; in the data set with TK6 cell line (setting [14]) it was 275; in the data set on TK6 cell line (setting [15]), 387. Besides, the “Plating Efficiency” value turned out to be 0.094 with TK6 cell line (setting [13]), 0.15 in the data set on TK6 cell line (setting [14]) and 0.23 in the data set on TK6 cell line (setting [15]).
In the case of `c1ccc2c(c1)-c1cccc3cccc-2c13` [fluoranthene], the “mutagenic activity for these human cells” value with TK6 cells [1] is reported as “active as mutagens”.
As to `Nc1nc2nc[nH]c2c(=S)[nH]1` [6-thioguanine], the “phenotypic expression time of 6-thioguanine resistance” value in the data set with TK6 cells [6] was in the range of 5 to 6 days.
